Source: patent publication US20100279990A1, “ANTIPROLIFERATIVE COMPOUNDS, COMPOSITIONS AND METHODS OF USE” (RAMOT AT TEL-AVIV UNIVERSITY LTD., priority 2006, published 2010)
Read-outs that look alike come from different tables or passages of the source.

Experiments:
[1] = test system: human colon carcinoma cells (HT29); experiment: HT29 human colon carcinoma s.c. tumor in Nude CD1 male mice; type: in vivo
From the text: This example illustrates the effect of several compounds, including an exemplary compound of the present invention, on tumor volume. tumor weight and body weight in mice. Nude CD1 male mice were purchased from Harlan (Israel). Animals were housed under controlled conditions (temperature, humidity) and were given food and water ad libitum. After one week of acclimatization animals were inoculated s.c. with human colon carcinoma cells (HT29) (2,000,000 cell/animals.). Therapy began 8 days after inoculation, at which time the animals were divided randomly into 4 groups (7-8 mice/group) and administered ip 3 times weekly for 4 weeks with the following compounds: […] Body weight and tumor volume were measured weekly. Tumor volume is defined as (shortest diameter)^2×(longest diameter)×0.5. At the end of the treatment, animals were sacrificed and tumors and organs collected and weighed.

[2] = test system: CEM/C1 cell-lines (camptothecin resistant human T-cell leukemia); experiment: Viability of CEM/C1 cell-line, alamar blue; type: cell-based; details: 1-30 μM
From the text: This cell-line is a camptothecin (CPT) resistant derivative of the human T-cell leukemia purchased from ATCC (USA). […] The results are depicted in FIG. 14. Each point represents the mean+/−SEM of 4 determinations.

[3] = test system: CEM/C1 human leukemia cells; experiment: Cell proliferation of CEM/C1 human leukemia cells, 3H thymidine incorporation; type: cell-based; details: for cell proliferation: 1 μM, 3H thymidine incorporation 24 hours; for effect on cell proliferation: already evident at 1 μM; for inhibition at 10 µM: Homo sapiens, 3H thymidine incorporation
Procedure: […] Cells, 10,000/well, were harvested and the incorporated radioactivity was determined by liquid scintillation in a beta counter.

[4] = test system: human Jurkat lymphoma cells; experiment: Viability of human Jurkat lymphoma cells, alamar blue staining; type: cell-based; details: for IC50: Homo sapiens, 48 hr, alamar blue
Procedure: This example illustrates cell viability data derived from the incubation of a human. […] The results are depicted in FIGS. 1A, 1B, and 1C. […] See Nociari et al., J. Immunol. […] Each point represents the mean+/−SE of 4 determinations.

[5] = test system: human Jurkat lymphoma cells; experiment: Viability of human Jurkat lymphoma cells, dexamethasone alone and in combination; type: cell-based; details: Homo sapiens, 20 μM alone, FIG. 13B, read-out: inhibition of cell viability
[6] = test system: Jurkat Lymphoma cells; experiment: Viability of Jurkat Lymphoma cells, combination with Doxorubicin; type: cell-based; details: Homo sapiens, Doxorubicin 20 μM alone, read-out: inhibition of cell viability
[7] = test system: human colon carcinoma cells (HT29); experiment: cells; details: HT-29, read-out: cell viability
[8] = test system: human colon carcinoma cells (HT29)
[9] = test system: Con-A activated naive mouse splenocytes; experiment: Con-A-induced mouse splenocyte proliferation, alamar blue staining; type: cell-based
From the text: This example illustrates cell viability data obtained by separately administering different concentrations of compound (Ia), paroxetine, citalopram, and ecitalopram to Con-A activated naive mouse splenocytes. FIG. 3A depicts the comparative effect of compound (Ia), paroxetine, citalopram and ecitalopram on Con-A-induced mouse splenocyte proliferation using alamar blue staining after 48 hr. Each point represents the mean+/−SE of 5 determinations.

[10] = test system: human glioma U87 cells; experiment: Viability of human glioma U87 cell-line; type: cell-based; details: FIG. 9
[11] = test system: human keratinocytes (HaCat cells); experiment: Viability of human keratinocytes (HaCat cells), neutral red staining; type: cell-based; details: 24 hr, read-out: IC50, cell viability
[12] = test system: Caspase 3 activity of LS1034 human colon MDR carcinoma cells; experiment: Caspase-3 activity in LS1034 human colon MDR carcinoma cells; type: cell-based; details: 10 or 20 μM, 4 hr after exposure
Procedure: Caspase 3 activity was measured by an enzymatic fluorimetric method using a fluorigenic substrate (Ac-DEVD-AMC), which produces blue fluorescence detected at 360 nm wavelength. […] When AMC is cleaved from the substrate by caspase-3, and caspase-3-like enzymes, it produces a yellow-green fluorescence, which can be monitored by a fluorimeter at 460 nm. The amount of yellow green fluorescence is proportional to the activity of caspase-3 in the cell extract sample.
Whole cell lysate was added to a buffer containing 100 μM peptide substrate, 100 mM HEPES, 10% glycerol, 1 mM EDTA and 10 mM dithiothreitol. Measurements were taken every 5 min for 80 min. These experiments were also monitored in the presence of a specific caspase-3 inhibitor, DEVD-AMC-CHO, which was added after 45 or 60 min to the reaction mixture, to ascertain the specificity of the enzyme.

[13] = test system: c-jun and p-c-jun expression in HaCat cells; experiment: Western blot of c-jun and p-c-jun expression in HaCat cells; type: cell-based, human; details: 15 μM, 1 hr
From the text: For each sample 2×10^7 cells were used. The cells were lysed, and equal amounts of protein was fractionated on polyacrylamide gel and then transferred to PVDF membrane. The amount of the protein was detected by immuno-blotting with monoclonal anti-c-Jun or p-c-Jun antibodies (Cayman, Ann Arbor, Mich., USA). A second antibody conjugated to horseradish peroxidase was used and visualized with chemiluminescent Kit (Pierce, Rockford, Ill., USA) on film. […] Activation of the […] pathway produces p-c-Jun as a major end, while initiating apoptosis in certain cell-lines.

[14] = test system: human tumor cell lines; experiment: In vitro antitumor activity in panel of 37 human tumor cell lines (Monolayer Assay, PI), summary; type: cell-based; details: mean over human cancer cell-lines
[15] = FIG. 1C, read-out: IC50, inhibition of cell viability

O=c1[nH]cc(F)c(=O)[nH]1 [5 FU, fluorouracil, reference compound] was tested, and the tumor volume ([1]; HT29 tumor in nude mice, ip 3 times weekly, after 3 and 4 weeks of therapy, FIG. 16) was “significantly decreased compared to the control groups”.
In the case of OCCCC#Cc1cc2c(cc1OC[C@@H]1CNCC[C@H]1c1ccc(F)cc1)OCO2 [compound (Ib), (3S-trans)-3-((6-(5-hydroxy-1-pentyn-1-yl)-1,3-benzodioxol-5-yloxy)methyl)-4-(4-fluorophenyl)-piperidine], the IC50 [2] is reported as 7.6 µM, the “effect compared to sertraline and paroxetine” value [3] is reported as “significantly higher effects compared to sertraline and paroxetine” and the cell proliferation [3] is reported as 43.6 % of controls. The “effect on cell proliferation” value [3] was “dose dependent decrease in cell proliferation”, the IC50 [4, 15] was 19.5 µM and the “potency compared with paroxetine” value ([4]; concentrations higher than 5 μM, FIG. 1C) was “higher potency than paroxetine”.
With CN[C@H]1CC[C@@H](c2ccc(Cl)c(Cl)c2)c2ccc(C#CCCCOC)cc21.Cl [compound (Ic), (1S-cis)-4-(3,4-dichlorophenyl)-7-(5-methoxy-1-pentyn-1-yl)-1,2,3,4-tetrahydro-N-methyl-1-naphthalenamine hydrochloride] the IC50 [2] was 13.5 µM, the inhibition at 10 µM [3] was roughly 95% and the “effect on cell proliferation” value [3] was “dose dependent decrease in cell proliferation”. For the same molecule, the IC50 ([4]; FIG. 1B, read-out: IC50, decrease in cell viability) was 17 µM and the “potency compared with sertraline” value ([4]; lower concentrations (1-10 μM), FIG. 1B) was “higher potency than sertraline”.
C[C@@H]1C[C@H]2[C@@H]3CCC4=CC(=O)C=C[C@]4(C)[C@@]3(F)[C@@H](O)C[C@]2(C)[C@@]1(O)C(=O)CO [dexamethasone, reference compound] showed a cytotoxicity at 20 µM [5] of 8%.
With COc1cccc2c1C(=O)c1c(O)c3c(c(O)c1C2=O)C[C@@](O)(C(=O)CO)C[C@@H]3O[C@H]1C[C@H](N)[C@H](O)[C@H](C)O1 [doxorubicin, reference compound] the cytotoxicity at 20 µM [6] was 54%, the cell proliferation [3] was 65.7 % of controls and the inhibition at 10 µM [3] was roughly 95%. For the same molecule, the viability at 30 µM [7] was 57.7% and the “effect on cell viability compared with the antidepressants and compound (Ia)” value ([8]; 10 and 20 μM, FIG. 2A) was “more pronounced than that produced by the antidepressants and compound (Ia)”.
With CN(C)CCC[C@@]1(c2ccc(F)cc2)OCc2cc(C#N)ccc21 [ecitalopram, reference compound] the “effect on cell viability” value ([4]; low concentrations (2.5 and 5.0 μM), FIG. 1A) was “slight decrease in cell-viability” and the effect on cell-viability ([9]; up to 30 μM) was “no effect on cell-viability”.
With Fc1ccc([C@@H]2CCNC[C@H]2COc2ccc3c(c2)OCO3)cc1 [paroxetine, reference compound] the IC50 [2] was 12.3 µM, the “effect on cell viability” value [10] was “inhibit this glioma cell-line in a dose dependant fashion” and the IC50 ([4]; FIG. 1A, read-out: IC50, anti-proliferative activity) was 37.7 µM. The IC50 [4, 15] was 37.6 µM, the viability at 30 µM [7] was 74% and the IC50 [11] was 16 µM. The IC50 ([9]; Splenocyte, 48 hr, alamar blue, read-out: IC50, inhibition in cell viability) was 11.9 µM and the caspase-3 activity [12] was “dose dependent increase in the activity of caspase-3”.
For CN[C@H]1CC[C@@H](c2ccc(Cl)c(Cl)c2)c2ccccc21 [sertraline], the “decrease in body weight” value ([1]; compared to 5 FU or controls, FIG. 18) was 10%, the “histopathological assessment of spleen, liver and kidney” value ([1]; end of treatment) was “change in capsule fibrosis at random” and the “effect on cell viability” value [10] was “inhibit this glioma cell-line in a dose dependant fashion”. For the same molecule, the “efficacy compared with paroxetine” value [10] was “higher efficacy than paroxetine”, the “effect on c-Jun / p-c-Jun (MAPK pathway)” value [13] was “activation of the c-Jun-N-terminal kinase (JNK) pathway” and the “mean IC70” value [14] was 13 µM. For the same molecule, the viability at 30 µM [7] was 60.3%, the caspase-3 activity [12] was “dose dependent increase in the activity of caspase-3” and the “potency compared with paroxetine” value ([8]; 10-30 μM, FIG. 2A) was “higher potency than paroxetine”. For the same molecule, the “potency compared with paroxetine and fluoxetine” value ([8]; equimolar doses, FIG. 2B) was “significantly more potent than paroxetine and fluoxetine”.
